Values of other authors in US8334298B2, “Treatment or prevention of ovarian hyperstimulation syndrome (OHSS) using a dopamine agonist” (Ferring International Center S.A., priority 2005, dated 2012).

Conditions: oncolytic models; cited from earlier work

For Cc1cc(C)c(/C=C2\C(=O)Nc3ccccc32)[nH]1 [SU5416], the toxic effects is listed as “serious toxic effects”.
